Measurements: patent publication US8324194B2, “Combination therapy for the treatment of cancer” (Incyte Corporation, priority 2005, dated 2012)

Experiments:
[1] = tested on: BT-474 human breast cancer xenografts; experiment: Growth of subcutaneous BT-474 breast cancer xenograft in mice; type: in vivo; settings: BT-474 xenograft; for inhibited tumor cell growth over the control group: nu/nu mice, Compound 1 60 mg/kg/day SC pump for 14 days, fulvestrant 5 mg SC once per week for four weeks, mean tumor volume vs control group (a); for tumor growth delay (TGD, T-C) to 500 cubic mm by linear regression analysis of tumor growth rate: Compound 1 60 mg/kg/day for 14 days, fulvestrant 5 mg weekly x4, projected time
Description: Human breast cancer cell line BT-474 was obtained from American Type Tissue Culture Collection (ATCC, Manassas, Va.). Cells were routinely maintained in media recommended by the ATCC with slight modifications. Cells were kept at 37° C. in a humidified incubator supplied with 5% CO2. BT-474 cells were grown in RPMI 1640 (Invitrogen) supplemented with 10% fetal bovine serum (FBS), 0.01 mg/ml bovine insulin, 10 mM HEPES and 0.1 mM non-essential amino acids.
Animal studies were performed under Animal Welfare Regulation Guidelines in a facility accredited by the Association for the Assessment and Accreditation of Laboratory Animal Care (AAALAC). Balb/c or CD-1 nu/nu mice (Charles River, Wilmington, Mass.) were injected subcutaneously with logarithmically growing cells suspended in either serum free culture media, or a 1:1 mixture media and Matrigel™ (BD Biosciences). The tumor models required implantation (on the same day or one day prior to cell inoculation) of estradiol pellets (17-βestradiol, 0.72 mg/pellet, 60 day release; Innovative Research of American, Sarasota, Fla.). The time in days after injection of the tumor cells into the mice was measured as “days post-inoculation”.
Subcutaneous implantation of osmotic pumps (obtained from Alzet, Cupertino, Calif.) was performed under isofluorane anesthesia following manufacturer's protocol. Subcutaneous pumps were used to deliver a solution of Compound 1, or its inert solvent. Fulvestrant, or its inert solvent, was delivered by subcutaneous injection on the dorsal flanks of the animals. […] Treatment was usually initiated when mean tumor volumes were approximately 150 mm^3 at the beginning of treatment. Ten test animals were included in each Treatment group, (a)-(d).
Tumor size was measured and used to calculate tumor volume for a period of time following the injection of the tumor cells into the mice. Tumor size was measured by using a caliper to measure the length (l) and width (w) of tumors to calculate an approximate volume ((l×w^2)/2). These tumor size measurements and tumor volume calculations were recorded relative to the number of days post-inoculation of the mice with the tumor cells. […] Mean tumor volume was calculated based on the tumor volumes for the ten test animals in each treatment group.
(§1) Treatment group (a) was the control group of test animals. […] Tumor size was measured for each test animal as described above and recorded as a function of the number of days post-inoculation of the mice with the BT-474 breast cancer cells. Mean tumor volume was then calculated for treatment group (a) and plotted against the number of days post-inoculation as shown in FIG. 2. […]

[2] = tested on: MCF-7 human breast cancer xenografts; experiment: Growth of subcutaneous MCF-7 breast cancer xenograft in mice; type: in vivo; settings: MCF-7 xenograft; for inhibited tumor cell growth over the control group: nu/nu mice, fulvestrant 5 mg SC once per week for four weeks, mean tumor volume vs control group (a)
Description: Human breast cancer cell line MCF-7 was obtained from American Type Tissue Culture Collection (ATCC, Manassas, Va.). Cells were routinely maintained in media recommended by the ATCC with slight modifications. Cells were kept at 37° C. in a humidified incubator supplied with 5% CO2. MCF-7 cells were kept in Eagle's minimal essential medium (ATCC) supplemented with 10% FBS and 0.01 mg/ml bovine insulin.
Animal studies were performed under Animal Welfare Regulation Guidelines in a facility accredited by the Association for the Assessment and Accreditation of Laboratory Animal Care (AAALAC). Balb/c or CD-1 nu/nu mice (Charles River, Wilmington, Mass.) were injected subcutaneously with logarithmically growing cells suspended in either serum free culture media, or a 1:1 mixture media and Matrigel™ (BD Biosciences). The tumor models required implantation (on the same day or one day prior to cell inoculation) of estradiol pellets (17-β estradiol, 0.72 mg/pellet, 60 day release; Innovative Research of American, Sarasota, Fla.). The time in days after injection of the tumor cells into the mice was measured as “days post-inoculation”.
Subcutaneous implantation of osmotic pumps (obtained from Alzet, Cupertino, Calif.) was performed under isofluorane anesthesia following manufacturer's protocol. Subcutaneous pumps (hereinafter “SC pumps”) were used to deliver a solution of Compound 1, or its inert solvent. Fulvestrant, or its inert solvent, was delivered by subcutaneous injection on the dorsal flanks of the animals. Treatment was usually initiated when mean tumor volumes were approximately 150 mm^3 at the beginning of treatment. Ten test animals were included in each treatment group, (a)-(d).
Tumor size was measured and used to calculate tumor volume for a period of time following the injection of the tumor cells into the mice. Tumor size was measured by using a caliper to measure the length (1) and width (w) of tumors to calculate an approximate volume ((l×w^2)/2). These tumor size measurements and tumor volume calculations were recorded relative to the number of days post-inoculation of the mice with the tumor cells. The frequency of the tumor size measurements varied depending on how quickly the tumors grew in size, with more frequent measurements being taken when the tumors grew quickly. Mean tumor volume was calculated based on the tumor volumes for the ten test animals in each treatment group.
as §1, with “MCF-7” for “BT-474”, “1.” for “2.”

[3] = Compound 1 60 mg/kg/day SC pump for 14 days

Compound | inhibited tumor cell growth over the control group [1] [%] | tumor growth delay (TGD, T-C) to 500 cubic mm by linear regression analysis of tumor growth rate [1] [days] | inhibited tumor cell growth over the control group [2, 3] [%] | tumor growth delay (TGD, T-C) to 1000 cubic mm, real, not calculated [2, 3] [days] | calculated tumor growth delay (TGD, T-C) to 1000 cubic mm by linear regression analysis of tumor growth curves ([2]; fulvestrant 5 mg SC weekly x4, alone or with Compound 1 60 mg/kg/day for 14 days, projected time) [days]
COC(=O)N1CC2(CC2)C[C@H](C(=O)NO)[C@H]1C(=O)N1CCN(c2ccccc2)CC1 [Compound 1, methyl (6S,7S)-7-[(hydroxyamino)carbonyl]-6-[(4-phenylpiperazin-1-yl)carbonyl]-5-azaspiro[2.5]octane-5-carboxylate] | 33 | 19 | 46 | 32 | –
C[C@]12CC[C@@H]3c4ccc(O)cc4C[C@@H](CCCCCCCCC[S+]([O-])CCCC(F)(F)C(F)(F)F)[C@H]3[C@@H]1CC[C@@H]2O (some centres unmarked) [fulvestrant] | 46 | 54 | 52 | – | 63
